Several values for one entry are separate records, joined by “and”; a condition that tells them apart may be missing. Equal entries are not always repeated. Structures can show the parent of a compound that is named as a salt.

For one assay, the target named is CNDP2 (Homo sapiens (Human), UniProt Q96KP4). Description: CNDP2 enzyme inhibition assay (Met-His hydrolysis, free histidine by o-phthaldialdehyde fluorescence), dose-response. Format: biochemical. To be noted: 50 nM purified CNDP2 (Sino Biological), 1 mM Met-His substrate, 30 minutes at 37° C.; TABLE 1. As for the experimental part: To identify optimal conditions for identifying novel inhibitors of CNDP2, enzyme assays were performed with varied sources of purified enzyme, concentrations of enzyme, peptide substrates, concentrations of peptide substrates and metal cofactors. […] The reaction mixture was incubated for 30 minutes at 37° C. before it was quenched with an equal volume of 1% TCA. Free histidine was quantified after derivatization with a fluorophore (o-phthaldialdehyde from Sigma-Aldrich, excitation 340 nm, emission 460 nm). The reaction was conducted in an automation-friendly format to meet future screening throughput demands. A histidine titration standard curve was also included to enable conversion of fluorescence signal to molar concentration of histidine released by the hydrolysis reaction and to ensure the linearity of the fluorescence signal vs. free histidine.
Sequence of CNDP2 (Q96KP4 whole entry): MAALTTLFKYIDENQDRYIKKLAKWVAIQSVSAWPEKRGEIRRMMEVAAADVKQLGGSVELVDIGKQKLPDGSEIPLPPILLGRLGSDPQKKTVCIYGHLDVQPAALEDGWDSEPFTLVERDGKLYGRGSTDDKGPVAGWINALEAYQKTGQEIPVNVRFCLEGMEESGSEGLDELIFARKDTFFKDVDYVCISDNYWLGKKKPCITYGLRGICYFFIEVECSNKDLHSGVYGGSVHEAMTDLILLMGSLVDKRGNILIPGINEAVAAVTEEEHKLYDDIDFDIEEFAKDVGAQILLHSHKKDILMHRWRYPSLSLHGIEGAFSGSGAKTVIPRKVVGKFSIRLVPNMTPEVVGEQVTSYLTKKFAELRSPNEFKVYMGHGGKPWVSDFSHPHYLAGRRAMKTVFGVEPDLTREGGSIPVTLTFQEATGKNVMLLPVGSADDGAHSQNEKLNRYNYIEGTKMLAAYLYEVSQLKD
Compounds of Formula (I) disclosed herein were screened for potency in inhibiting CNDP2 enzyme activity in a dose-response experiment. Bestatin was included with each batch of test molecules as a benchmark for assay quality control.
In general, IC50 refers to the concentration needed to halve the response being measured. In turn, `CC(C)C[C@H](NC(=O)[C@@H](O)[C@H](N)Cc1ccccc1)C(=O)O` [bestatin, reference compound] registered an IC50 of at least 1 µM.

Still in this assay, the particulars now being: 50 nM purified CNDP2 (Sino Biological), 1 mM Met-His substrate, 30 minutes at 37° C.; TABLE 2.
As to `N[C@H](Cc1ccccc1)[C@H](O)C(=O)N[C@@H](C(=O)O)c1cc(Cl)cc(OC(F)(F)F)c1` [Compound 108, (R)-2-((2S,3R)-3-amino-2-hydroxy-4-phenylbutanamido)-2-(3-chloro-5-(trifluoromethoxy)phenyl)acetic acid hydrochloride], the half-inhibitory concentration (IC50) was at least 1 µM.

For the compound `N[C@H](Cc1ccccc1)[C@H](O)C(=O)N[C@H](C(=O)O)c1cc(Cl)cc(OC(F)(F)F)c1` [Compound 109, (S)-2-((2S,3R)-3-amino-2-hydroxy-4-phenylbutanamido)-2-(3-chloro-5-(trifluoromethoxy)phenyl)acetic acid hydrochloride], the IC50 was below 0.1 µM.

The compound `N[C@H](Cc1ccccc1)[C@H](O)C(=O)N[C@@H](C(=O)O)c1ccc(Br)c(OC(F)(F)F)c1` [Compound 110, (R)-2-((2S,3R)-3-amino-2-hydroxy-4-phenylbutanamido)-2-(4-bromo-3-(trifluoromethoxy)phenyl)acetic acid hydrochloride] yielded an IC50 of at least 1 µM.

Regarding `N[C@H](Cc1ccccc1)[C@H](O)C(=O)N[C@H](C(=O)O)c1ccc(Br)c(OC(F)(F)F)c1` [Compound 111, (S)-2-((2S,3R)-3-amino-2-hydroxy-4-phenylbutanamido)-2-(4-bromo-3-(trifluoromethoxy)phenyl)acetic acid hydrochloride], the IC50 is below 0.1 µM.

In turn, `N[C@H](Cc1ccccc1)[C@H](O)C(=O)N[C@H](C(=O)O)c1ccc(F)c(OC(F)(F)F)c1F` [Compound 114, (S)-2-((2S,3R)-3-amino-2-hydroxy-4-phenylbutanamido)-2-(2,4-difluoro-3-(trifluoromethoxy)phenyl)acetic acid hydrochloride] returned an IC50 below 0.1 µM.

Consider `N[C@H](Cc1ccccc1)[C@H](O)C(=O)N[C@H](C(=O)O)c1cccc2c1OC(F)(F)O2` [Compound 115, (S)-2-((2S,3R)-3-amino-2-hydroxy-4-phenylbutanamido)-2-(2,2-difluorobenzo[d][1,3]dioxol-4-yl)acetic acid hydrochloride], for which the IC50 is ≥ 1 µM and 0.1 to 1 µM.

The compound `N[C@H](Cc1ccccc1)[C@H](O)C(=O)N[C@@H](Cc1ccc(OC(F)(F)F)cc1)C(=O)O` [Compound 117, (S)-2-((2S,3R)-3-amino-2-hydroxy-4-phenylbutanamido)-3-(4-(trifluoromethoxy)phenyl)propanoic acid] registered an IC50 of at least 1 µM.

Regarding `N[C@H](Cc1ccccc1)[C@H](O)C(=O)N[C@@H](Cc1cccc(OC(F)(F)F)c1)C(=O)O` [Compound 118, (S)-2-((2S,3R)-3-amino-2-hydroxy-4-phenylbutanamido)-3-(3-(trifluoromethoxy)phenyl)propanoic acid], the IC50 was below 0.1 µM.

Compound `N[C@H](Cc1ccccc1)[C@H](O)C(=O)N[C@@H](Cc1ccc(OC(F)(F)F)c(F)c1)C(=O)O` [Compound 119, (S)-2-((2S,3R)-3-amino-2-hydroxy-4-phenylbutanamido)-3-(3-fluoro-4-(trifluoromethoxy)phenyl)propanoic acid] had an IC50 of 0.1 to 1 µM.

In the case of `N[C@H](Cc1ccc(Cl)cc1)[C@H](O)C(=O)N[C@H](C(=O)O)c1cccc(OC(F)(F)F)c1` [Compound 127, (S)-2-((2S,3R)-3-amino-4-(4-chlorophenyl)-2-hydroxybutanamido)-2-(3-(trifluoromethoxy)phenyl)acetic acid], the IC50 is at least 1 µM.

In turn, `N[C@H](Cc1ccc(Cl)cc1)[C@H](O)C(=O)N[C@@H](C(=O)O)c1cccc(OC(F)(F)F)c1` [Compound 128, (R)-2-((2S,3R)-3-amino-4-(4-chlorophenyl)-2-hydroxybutanamido)-2-(3-(trifluoromethoxy)phenyl)acetic acid] displayed an IC50 of at least 1 µM.

With `N[C@H](Cc1ccc(Br)cc1)[C@H](O)C(=O)N[C@H](C(=O)O)c1cccc(OC(F)(F)F)c1` [Compound 129, (S)-2-((2S,3R)-3-amino-4-(4-bromophenyl)-2-hydroxybutanamido)-2-(3-(trifluoromethoxy)phenyl)acetic acid], the IC50 was at least 1 µM.

In turn, `N[C@H](Cc1ccc(Br)cc1)[C@H](O)C(=O)N[C@@H](C(=O)O)c1cccc(OC(F)(F)F)c1` [Compound 130, (R)-2-((2S,3R)-3-amino-4-(4-bromophenyl)-2-hydroxybutanamido)-2-(3-(trifluoromethoxy)phenyl)acetic acid] yielded an IC50 of at least 1 µM.

Compound `N[C@H](Cc1ccc(C(F)(F)F)cc1)[C@H](O)C(=O)N[C@@H](C(=O)O)c1cccc(OC(F)(F)F)c1` [Compound 132, (R)-2-((2S,3R)-3-amino-2-hydroxy-4-(4-(trifluoromethyl)phenyl)butanamido)-2-(3-(trifluoromethoxy)phenyl)acetic acid] came in with an IC50 of 0.1 to 1 µM.

In turn, `N[C@H](Cc1ccc(C(F)(F)F)cc1)[C@H](O)C(=O)N[C@H](C(=O)O)c1cccc(OC(F)(F)F)c1` [Compound 133] showed an IC50 of at least 1 µM.

`N[C@H](Cc1ccc(C(F)(F)F)cc1)[C@H](O)C(=O)N[C@@H](C(=O)O)c1cccc(OC(F)(F)F)c1` [Compound 134] returned an IC50 of at least 1 µM.

Still in this assay, the particulars now being: bestatin 10 microM down to 5 pM; consistent across run days.
Turning to `CC(C)C[C@H](NC(=O)[C@@H](O)[C@H](N)Cc1ccccc1)C(=O)O` [bestatin, reference compound], the IC50 is around 2 µM.

The record behind these values is US20250120927A1, “CNDP2 MODULATORS AND METHODS FOR THEIR USE” (Metabolon Inc., priority 2023, published 2025).
